In patent EP2832344A1, “COMPOSITION, AND EXTERNAL PREPARATION FOR THE SKIN OR FUNCTIONAL FOOD EACH CONTAINING SAID COMPOSITION” (FUJI-FILM Corporation, priority 2012, dated 2013):

Experiments:
[1] = Storage stability of hydroxystilbenes (residual amount by HPLC); type: physicochemical; conditions: for remaining at 1032 h: pH 8, left 43 days at room temperature, sample with PEG-60 hydrogenated castor oil in citric acid buffer solution, HPLC
Procedure: Various hydroxystilbenes shown in the following Table 1 were dissolved in ethanol, thereby preparing a 1% solution. The solution was stirred together with PEG-60 hydrogenated castor oil which was in an amount 10 times the amount of the solution with respect to 1 part of the ethanol solution. Thereafter, the resultant was diluted by 100-fold with a citric acid buffer solution, thereby preparing a sample.
pH of the sample prepared as above was regulated to be 8, and the sample was left as is for a month and a half (43 days) at room temperature. Thereafter, by means of HPLC, a residual amount of various hydroxystilbenes in each sample was determined. Analysis conditions for HPLC are as follows.
• Column: C18 5 µm, 4.6 mm x 250 mm • Flow rate: 1 ml/min • Column temperature: 40°C • Detection wavelength: 310 nm • Developing solution: acetonitrile/water = 20/80 (volume ratio, containing 0.1% by volume of acetic acid and 0.1% by volume of triethanolamine) [Table 1]

[2] = test system: NF-κB; assay: NF-κB intranuclear transition in UVB-irradiated dermal fibroblasts (Western blotting); type: cell-based; conditions: Homo sapiens, light or radiation study; HDF cells, UVB (20 mJ) irradiated, 6 hours; pterostilbene 5 ppm, no carotenoid; not irradiated = 100 %, irradiated without additive = 684%; read-out: Ratio of amount of NF-κB moving into nucleus
Excerpt: NFκB is considered to be involved in skin aging at an early stage. Therefore, an NFκB intranuclear transition inhibition rate of carotenoid and pterostilbene was examined.
Normal human dermal fibroblasts (HDF cells, KURABO INDUSTRIES LTD.) were subcultured three times according to a common method, in a GlutaMax medium (D-MEM, Gibco) supplemented with 10% fetal bovine serum (FBS, Gibco). The subcultured HDF cells were caused to adhere to a container at 1,000,000 cells/25 cm^2 and put in a serum starvation state for a day. Thereafter, the HDF cells were washed with phosphate buffered saline (PBS).
The cells were irradiated with UVB (20 mJ) emitted from right above the cells, and then the medium was replaced with a medium obtained by adding 0.1% FBS to D-MEM containing the carotenoid and the pterostilbene shown in Tables 6 and 7.
6 hours after the replacement of the medium, nuclei were extracted using NucBuster (Novagen), and the amount of NF-κB moved into the nuclei was determined by Western blotting (WB) (primary antibody: NF-κB p65 Rabbit Monoclonal Antibody (Cat. #1546-1), EPITOMICS).
Moreover, in Experiment 1 and Experiment 7, for comparison, the cells were not irradiated with UVB.

For COc1cc(/C=C/c2cc(O)cc(O)c2)ccc1O [(E)-3,4',5-trihydroxy-3'-methoxystilbene], the remaining at 1032 h [1] was 46%.

Oc1cc(O)cc(/C=C/c2ccc(O)c(O)c2)c1 [Piceatannol] showed a remaining at 1032 h [1] of 26%.

Work on COc1cc(/C=C/c2ccc(O)cc2)cc(OC)c1 [Pterostilbene, trans-1-(3,5-Diemthoxyphenyl)-2-(4-hydroxyphenyl)ethylene] yielded a remaining at 1032 h [1] of 99% and an activity at 5 ppm [2] of 420%.

Oc1ccc(C=Cc2cc(O)cc(O)c2)cc1 [Resveratrol] gave a remaining at 1032 h [1] of 54%.

With O=C(O)C1OC(Oc2ccc(C=Cc3cc(O)cc(O)c3)cc2)C(O)C(O)C1O [trans-resveratol 4'-O-beta-D-glucuronide] the “Residual amount (%)” value ([1]; citric acid buffer, 1032 h, pH 8) was 73%.
